Patent publication US20130273179A1, “SYSTEM AND METHOD FOR IMPROVING OUTCOME OF CEREBRAL ISCHEMIA” (ASTUCE, INC., priority 2012, published 2013)

What was measured:
[1] = Tolerability of intranasal nitric oxide in awake humans (normal volunteers); assay type: in vivo, human
Description: While nitric oxide may be given intranasally and without inhalation into the lungs to intubated, comatose individuals the tolerability of intranasal nitric oxide in awake humans has not previously been investigated. The inventors have tested the effect of nitric oxide in humans (normal volunteers) during intranasal delivery. […] Therefore it can easily be tolerated by awake, non-intubated patients.

[2] = test system: cerebral perfusion; test: CT perfusion scanning before and after intranasal nitric oxide in intubated patients with focal cerebral ischemia; assay type: in vivo, human
[3] = test system: cerebral ischemia (carotid artery occlusion model); test: Carotid artery occlusion model, Speckle laser Doppler, intubated rodents; assay type: in vivo; conditions: both during the carotid occlusion and following ligature release
Protocol: (§1) In intubated rodents, the inventors have shown that cerebral blood flow increases by 100% within 60 minutes of intranasal nitric oxide delivery.

[4] = test system: cerebral blood flow; test: Cerebral blood flow by cortical laser Doppler during intranasal nitric oxide in intubated rodents; assay type: in vivo; conditions: intranasal non-inhaled delivery, within 60 minutes
Protocol: as §1

SMILES: [N]=O [nitric oxide]
- tolerability of gas treatment ([1]; humans, high concentration, intra-nasally and without inhalation): tolerated at high concentration
- sensation during intranasal delivery ([1]; normal volunteers, concentrations up to 100 PPM): does not elicit any sensation
- Cerebral Blood Flow, Changes in ACA Watershed ([2]; Post Rx): Normalization,
- Mean Transit Time, Changes in ACA Watershed ([2]; Post Rx): Normalization
- Cerebral Blood Flow, Changes in ACA Watershed: increase in perfusion on L ([2]; Post Rx vs Pre Rx, left (ischemic) hemisphere): 67% increase in
- Mean Transit Time, Right Hemisphere (normal) ([2]; Post Rx, one hour of intranasal non-inhaled nitric oxide (Pre Rx 6)): 6.1 s
- Mean Transit Time, Left Hemisphere (ischemic) ([2]; Post Rx, one hour of intranasal non-inhaled nitric oxide (Pre Rx 10)): 6.0 s
- Cerebral Blood Flow, Left Hemisphere (ischemic) ([2]; Post Rx, one hour of intranasal non-inhaled nitric oxide (Pre Rx 31)): 52
- Cerebral Blood Flow, Right Hemisphere (normal) ([2]; Post Rx, one hour of intranasal non-inhaled nitric oxide (Pre Rx 49)): 45
- cerebral perfusion during treatment (CT perfusion scanning) ([2]; intubated patients with cerebral ischemia): augmentation of cerebral perfusion and normalization of regional perfusion abnormalities
- perfusion in the ischemic hemisphere [3]: perfusion is improved in the ischemic hemisphere
- cerebral blood flow increase [4]: 100%
